Values of other authors as cited in publication PMC6422283 (Future medicinal chemistry, 2015).
pIC50: −log10 of the molar value.

Test system: TRPV1
Details: capsaicin-induced Ca2+ flux into HEK293 cells

| Structure (SMILES) | pIC50 |
| --- | --- |
| Oc1cc2c(cc1O)CN(C(=S)NCCc1ccc(Cl)cc1)CCC2 [Compound 2, capsazepine] | 7.00 |
| Cc1nc2cc(NC(=O)c3ccc(-c4ccc(F)cc4)nc3C)ccc2s1 [SB782443] | 7.31 |
